Data reported in the NIST ThermoML archive (doi:10.1021/acs.jced.8b00157).
“And” between values parts separate entries of the source, which are not always exact repeats. Equal entries are not always repeated. Numbers after ± are expanded uncertainties.

Assay: an = ratio of the nth substance listed
Conditions: 100 kPa, Liquid, Buoyancy - hydrostatic balance

SMILES: [F][Al]([F])[F] [aluminum fluoride] + [F-].[K+]
- mass density (1123.5 K, a2 = 1.5): 1749 ± 10 kg/m3
- mass density (1124 K, a2 = 1.5): 1748 ± 10 kg/m3
- mass density (1124.4 K, a2 = 1.5): 1748 ± 10 kg/m3
- mass density (1124.9 K, a2 = 1.5): 1747 ± 10 kg/m3
- mass density (1125.1 K, a2 = 1.5): 1747 ± 10 kg/m3
- mass density (1125.7 K, a2 = 1.5): 1747 ± 10 kg/m3
- mass density (1126.2 K, a2 = 1.5): 1747 ± 10 kg/m3
- mass density (1126.6 K, a2 = 1.5): 1746 ± 10 kg/m3
- mass density (1127 K, a2 = 1.5): 1746 ± 10 kg/m3
- mass density (1127.4 K, a2 = 1.5): 1746 ± 10 kg/m3
- mass density (1127.8 K, a2 = 1.5): 1745 ± 10 kg/m3
- mass density (1128.2 K, a2 = 1.5): 1745 ± 10 kg/m3
- mass density (1128.6 K, a2 = 1.5): 1745 ± 10 kg/m3
- mass density (1128.9 K, a2 = 1.5): 1745 ± 10 kg/m3
- mass density (1129.6 K, a2 = 1.5): 1744 ± 10 kg/m3
- mass density (1129.8 K, a2 = 1.5): 1744 ± 10 kg/m3
- mass density (1130.3 K, a2 = 1.5): 1743 ± 10 kg/m3
- mass density (1130.8 K, a2 = 1.5): 1743 ± 10 kg/m3
- mass density (1131 K, a2 = 1.5): 1743 ± 10 kg/m3
- mass density (1131.5 K, a2 = 1.5): 1742 ± 10 kg/m3
- mass density (1132 K, a2 = 1.5): 1742 ± 10 kg/m3
- mass density (1132.3 K, a2 = 1.5): 1742 ± 10 kg/m3
- mass density (1132.7 K, a2 = 1.5): 1742 ± 10 kg/m3
- mass density (1133.2 K, a2 = 1.5): 1741 ± 10 kg/m3
- mass density (1133.6 K, a2 = 1.5): 1741 ± 10 kg/m3
- mass density (1134 K, a2 = 1.5): 1741 ± 10 kg/m3
- mass density (1134.3 K, a2 = 1.5): 1740 ± 10 kg/m3
- mass density (1134.8 K, a2 = 1.5): 1740 ± 10 kg/m3
- mass density (1135.2 K, a2 = 1.5): 1740 ± 10 kg/m3
- mass density (1135.6 K, a2 = 1.5): 1739 ± 11 kg/m3
- mass density (1136.1 K, a2 = 1.5): 1739 ± 10 kg/m3
- mass density (1163.2 K, a2 = 1.7): 1864 ± 10 kg/m3
- mass density (1163.3 K, a2 = 1.7): 1864 ± 11 kg/m3
- mass density (1163.4 K, a2 = 1.7): 1864 ± 11 kg/m3
- mass density (1163.6 K, a2 = 1.7): 1863 ± 10 kg/m3
- mass density (1164.4 K, a2 = 1.7): 1863 ± 11 kg/m3
- mass density (1165 K, a2 = 1.7): 1864 ± 11 kg/m3
- mass density (1165.1 K, a2 = 1.7): 1863 ± 11 kg/m3
- mass density (1165.3 K, a2 = 1.7): 1862 ± 11 kg/m3 and 1863 ± 11 kg/m3
- mass density (1165.4 K, a2 = 1.7): 1863 ± 11 kg/m3
- mass density (1166.1 K, a2 = 1.7): 1861 ± 11 kg/m3
- mass density (1166.2 K, a2 = 1.7): 1861 ± 11 kg/m3
- mass density (1166.4 K, a2 = 1.7): 1862 ± 11 kg/m3
- mass density (1166.6 K, a2 = 1.7): 1862 ± 11 kg/m3
- mass density (1166.8 K, a2 = 1.7): 1861 ± 10 kg/m3
- mass density (1167 K, a2 = 1.7): 1860 ± 10 kg/m3
- mass density (1167.3 K, a2 = 1.7): 1860 ± 10 kg/m3 and 1861 ± 10 kg/m3
- mass density (1167.5 K, a2 = 1.7): 1860 ± 11 kg/m3
- mass density (1167.6 K, a2 = 1.7): 1861 ± 11 kg/m3
- mass density (1168.2 K, a2 = 1.7): 1860 ± 11 kg/m3
- mass density (1168.6 K, a2 = 1.7): 1859 ± 10 kg/m3
- mass density (1169.1 K, a2 = 1.7): 1860 ± 11 kg/m3 and 1859 ± 10 kg/m3
- mass density (1169.2 K, a2 = 1.7): 1859 ± 10 kg/m3
- mass density (1169.4 K, a2 = 1.7): 1858 ± 10 kg/m3
- mass density (1169.6 K, a2 = 1.7): 1858 ± 10 kg/m3
- mass density (1169.7 K, a2 = 1.7): 1858 ± 10 kg/m3
- mass density (1169.8 K, a2 = 1.7): 1858 ± 10 kg/m3
- mass density (1170.3 K, a2 = 1.7): 1857 ± 11 kg/m3
- mass density (1170.5 K, a2 = 1.7): 1857 ± 11 kg/m3
- mass density (1170.6 K, a2 = 1.7): 1857 ± 11 kg/m3
- mass density (1171.1 K, a2 = 1.7): 1857 ± 11 kg/m3
- mass density (1172 K, a2 = 1.7): 1856 ± 11 kg/m3 and 1857 ± 11 kg/m3
- mass density (1172.2 K, a2 = 1.7): 1855 ± 10 kg/m3
- mass density (1172.7 K, a2 = 1.7): 1856 ± 11 kg/m3
- mass density (1173.3 K, a2 = 1.7): 1856 ± 11 kg/m3
- mass density (1173.8 K, a2 = 1.7): 1854 ± 11 kg/m3
- mass density (1174 K, a2 = 1.7): 1855 ± 10 kg/m3
- mass density (1174.1 K, a2 = 1.7): 1855 ± 11 kg/m3 and 1854 ± 11 kg/m3
- mass density (1174.5 K, a2 = 1.7): 1853 ± 10 kg/m3
- mass density (1174.6 K, a2 = 1.7): 1854 ± 10 kg/m3
- mass density (1174.9 K, a2 = 1.7): 1855 ± 10 kg/m3
- mass density (1175.1 K, a2 = 1.7): 1852 ± 10 kg/m3 and 1854 ± 10 kg/m3
- mass density (1175.4 K, a2 = 1.7): 1854 ± 10 kg/m3
- mass density (1175.6 K, a2 = 1.7): 1854 ± 11 kg/m3
- mass density (1175.8 K, a2 = 1.7): 1853 ± 10 kg/m3
- mass density (1175.9 K, a2 = 1.7): 1852 ± 10 kg/m3
- mass density (1176 K, a2 = 1.7): 1852 ± 10 kg/m3 and 1853 ± 10 kg/m3
- mass density (1176.8 K, a2 = 1.7): 1851 ± 10 kg/m3
- mass density (1177.3 K, a2 = 1.7): 1851 ± 10 kg/m3
- mass density (1177.5 K, a2 = 1.7): 1852 ± 10 kg/m3
- mass density (1177.8 K, a2 = 1.7): 1851 ± 10 kg/m3
- mass density (1177.9 K, a2 = 1.7): 1852 ± 10 kg/m3
- mass density (1178.2 K, a2 = 1.7): 1851 ± 11 kg/m3
- mass density (1178.3 K, a2 = 1.7): 1851 ± 10 kg/m3
- mass density (1178.4 K, a2 = 1.7): 1850 ± 10 kg/m3
- mass density (1179.5 K, a2 = 1.7): 1849 ± 11 kg/m3
- mass density (1179.7 K, a2 = 1.7): 1849 ± 11 kg/m3
- mass density (1179.8 K, a2 = 1.7): 1850 ± 10 kg/m3
- mass density (1179.9 K, a2 = 1.7): 1849 ± 10 kg/m3
- mass density (1180 K, a2 = 1.7): 1850 ± 11 kg/m3
- mass density (1180.2 K, a2 = 1.7): 1848 ± 11 kg/m3
- mass density (1180.4 K, a2 = 1.7): 1849 ± 10 kg/m3
- mass density (1180.7 K, a2 = 1.7): 1849 ± 11 kg/m3
- mass density (1181 K, a2 = 1.7): 1848 ± 11 kg/m3
- mass density (1181.4 K, a2 = 1.7): 1849 ± 10 kg/m3
- mass density (1181.5 K, a2 = 1.7): 1848 ± 11 kg/m3
- mass density (1181.8 K, a2 = 1.7): 1847 ± 11 kg/m3
- mass density (1182.4 K, a2 = 1.7): 1846 ± 10 kg/m3 and 1847 ± 10 kg/m3 and 1848 ± 10 kg/m3
- mass density (1182.6 K, a2 = 1.7): 1847 ± 11 kg/m3
- mass density (1182.7 K, a2 = 1.7): 1847 ± 11 kg/m3
- mass density (1183.2 K, a2 = 1.7): 1846 ± 10 kg/m3
- mass density (1183.6 K, a2 = 1.7): 1846 ± 11 kg/m3
- mass density (1183.8 K, a2 = 1.7): 1846 ± 10 kg/m3
- mass density (1184.2 K, a2 = 1.7): 1846 ± 10 kg/m3
- mass density (1184.3 K, a2 = 1.7): 1845 ± 10 kg/m3
- mass density (1184.6 K, a2 = 1.7): 1846 ± 10 kg/m3
- mass density (1184.8 K, a2 = 1.7): 1845 ± 10 kg/m3
- mass density (1184.9 K, a2 = 1.7): 1845 ± 10 kg/m3
- mass density (1185.1 K, a2 = 1.7): 1845 ± 10 kg/m3
- mass density (1185.4 K, a2 = 1.7): 1844 ± 10 kg/m3
- mass density (1185.7 K, a2 = 1.7): 1844 ± 10 kg/m3
- mass density (1186.3 K, a2 = 1.7): 1843 ± 10 kg/m3
- mass density (1186.4 K, a2 = 1.7): 1844 ± 11 kg/m3
- mass density (1186.5 K, a2 = 1.7): 1844 ± 10 kg/m3
- mass density (1186.8 K, a2 = 1.7): 1843 ± 10 kg/m3
- mass density (1186.9 K, a2 = 1.7): 1843 ± 10 kg/m3
- mass density (1187.8 K, a2 = 1.7): 1843 ± 10 kg/m3 and 1842 ± 11 kg/m3 and 1842 ± 10 kg/m3
- mass density (1188.1 K, a2 = 1.7): 1842 ± 10 kg/m3
